“And” between values parts separate entries of the source, which are not always exact repeats. Equal entries are not always repeated. Inconclusive results and toxic doses are left out.
Test system: L1210 leukemia ip in BDF1 mice, survival T/C
Test: NCI In Vivo Anticancer Drug Screen. Data for tumor model L1210 Leukemia (intraperitoneal) in B6D2F1 (BDF1) mice
Settings: endpoint: mean survival time, higher = longer survival
How it was run: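 Survival endpoint. Drug-treated group vs vehicle group, expressed as T divided by C. Tumor passaged by transplantation.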

[1] = dose: 100.0 mg/kg/injection, schedule: Q04DX003 (ip), vehicle: saline with Tween-80
[2] = dose: 200.0 mg/kg/injection, schedule: Q04DX003 (ip), vehicle: saline with Tween-80
[3] = dose: 100.0 mg/kg/injection, schedule: Q01DX009 (ip), vehicle: saline
[4] = dose: 100.0 mg/kg/injection, schedule: Q01DX009 (ip), vehicle: Klucel (hydroxypropylcellulose) (HPC)
[5] = dose: 100.0 mg/kg/injection, schedule: Q04DX003 (ip), vehicle: saline
[6] = dose: 200.0 mg/kg/injection, schedule: Q01DX009 (ip), vehicle: saline
[7] = dose: 200.0 mg/kg/injection, schedule: Q04DX003 (ip), vehicle: saline
[8] = dose: 400.0 mg/kg/injection, schedule: Q01DX009 (ip), vehicle: saline
[9] = dose: 400.0 mg/kg/injection, schedule: Q04DX003 (ip), vehicle: saline
[10] = dose: 200.0 mg/kg/injection, schedule: Q01DX009 (ip), vehicle: Klucel (hydroxypropylcellulose) (HPC)
[11] = dose: 400.0 mg/kg/injection, schedule: Q01DX009 (ip), vehicle: Klucel (hydroxypropylcellulose) (HPC)
[12] = dose: 100.0 mg/kg/injection, schedule: Q04DX003 (ip), vehicle: Klucel (hydroxypropylcellulose) (HPC)
[13] = dose: 200.0 mg/kg/injection, schedule: Q04DX003 (ip), vehicle: Klucel (hydroxypropylcellulose) (HPC)
[14] = dose: 400.0 mg/kg/injection, schedule: Q04DX003 (ip), vehicle: Klucel (hydroxypropylcellulose) (HPC)
[15] = dose: 25.0 mg/kg/injection, schedule: Q04DX003 (ip), vehicle: Klucel (hydroxypropylcellulose) (HPC)
[16] = dose: 50.0 mg/kg/injection, schedule: Q04DX003 (ip), vehicle: saline with Tween-80

With CCCCCCCCP(=O)(CCCCCCCC)C(O)C(Cl)(Cl)Cl (configuration not stated) the T/C [1] was 91 % of control, the T/C [2] was 96 % of control and the T/C (dose: 400.0 mg/kg/injection, schedule: Q04DX003 (ip), vehicle: saline with Tween-80) was 92 % of control.
For Oc1ccccc1/C=N\N=C(N/N=C/c1ccccc1O)N/N=C/c1ccccc1O, the T/C (dose: 15.0 mg/kg/injection, schedule: Q01DX Z (ip), vehicle: saline) was 98 % of control, the T/C (dose: 30.0 mg/kg/injection, schedule: Q01DX Z (ip), vehicle: saline) was 102 % of control and the T/C (dose: 60.0 mg/kg/injection, schedule: Q01DX Z (ip), vehicle: saline) was 102 % of control. For the same molecule, the T/C (dose: 120.0 mg/kg/injection, schedule: Q01DX Z (ip), vehicle: saline) was 96 % of control, the T/C (dose: 120.0 mg/kg/injection, schedule: Q01DX Z (oral), vehicle: saline) was 95 % of control and the T/C (dose: 240.0 mg/kg/injection, schedule: Q01DX Z (ip), vehicle: saline) was 101 % of control. For the same molecule, the T/C (dose: 240.0 mg/kg/injection, schedule: Q01DX Z (oral), vehicle: saline) was 90 % of control, the T/C (dose: 480.0 mg/kg/injection, schedule: Q01DX Z (ip), vehicle: saline) was 95 % of control and the T/C (dose: 480.0 mg/kg/injection, schedule: Q01DX Z (oral), vehicle: saline) was 92 % of control. For the same molecule, the T/C (dose: 960.0 mg/kg/injection, schedule: Q01DX Z (oral), vehicle: saline) was 90 % of control.
CCC[CH2][Sn]([CH2]CCC)([O]C(C)=O)[O]C(C)=O was tested, and the T/C (dose: 3.0 mg/kg/injection, schedule: Q01DX009 (ip), vehicle: saline) was 106 % of control, the T/C (dose: 6.12 mg/kg/injection, schedule: Q01DX009 (ip), vehicle: saline) was 101 % of control and the T/C (dose: 12.5 mg/kg/injection, schedule: Q01DX009 (ip), vehicle: saline) was 108 % of control. For the same molecule, the T/C (dose: 25.0 mg/kg/injection, schedule: Q01DX009 (ip), vehicle: saline) was 89 % of control.
With O=C1OCC/C1=C1/CCOC1 the T/C (dose: 50.0 mg/kg/injection, schedule: Q01DX009 (ip), vehicle: saline) was 91 % of control and the T/C [3] was 102 % of control.
For O=C(O)c1ccc(CO)o1, the T/C (dose: 50.0 mg/kg/injection, schedule: Q01DX009 (ip), vehicle: Klucel (hydroxypropylcellulose) (HPC)) was 107 % of control and the T/C [4] was 93 % of control.
With CC(=O)CC(=O)NCc1ccncc1 the T/C [3] was 97 % of control, the T/C [5] was 100 % of control and the T/C [6] was 105 % of control. The T/C [7] was 102 % of control, the T/C [8] was 95 % of control and the T/C [9] was 97 % of control.
With CCOP(=O)(CCBr)Oc1ccc([N+](=O)[O-])cc1 (configuration not stated) the T/C (dose: 0.5 mg/kg/injection, schedule: Q01DX001 (ip), vehicle: saline) was 97 % of control, the T/C (dose: 1.0 mg/kg/injection, schedule: Q01DX001 (ip), vehicle: saline) was 97 % of control and the T/C (dose: 2.0 mg/kg/injection, schedule: Q01DX001 (ip), vehicle: saline) was 103 % of control. For the same molecule, the T/C (dose: 4.0 mg/kg/injection, schedule: Q01DX001 (ip), vehicle: saline) was 107 % of control.
O=C(COCC(=O)N/N=C/c1cccc([N+](=O)[O-])c1)N/N=C/c1cccc([N+](=O)[O-])c1 was tested, and the T/C [4] was 92 % of control, the T/C [10] was 95 % of control and the T/C [11] was 106 % of control.
C[Si](C)(C)N1N=NC2C(=O)N(c3ccccc3)C(=O)C21 (configuration not stated) was tested, and the T/C [4] was 105 % of control, the T/C [12] was 92 % of control and the T/C [10] was 110 % of control. The T/C [13] was 102 % of control, the T/C [11] was 112 % of control and the T/C [14] was 103 % of control.
With Cc1ccc(NCC(O)CN2CCOCC2)cc1 (configuration not stated) the T/C (dose: 3.0 mg/kg/injection, schedule: Q04DX003 (ip), vehicle: Klucel (hydroxypropylcellulose) (HPC)) was 107 % of control, the T/C (dose: 6.0 mg/kg/injection, schedule: Q01DX009 (ip), vehicle: Klucel (hydroxypropylcellulose) (HPC)) was 101 % of control and the T/C (dose: 6.0 mg/kg/injection, schedule: Q04DX003 (ip), vehicle: Klucel (hydroxypropylcellulose) (HPC)) was 100 % of control. The T/C (dose: 12.0 mg/kg/injection, schedule: Q01DX009 (ip), vehicle: Klucel (hydroxypropylcellulose) (HPC)) was 93 % of control, the T/C (dose: 12.0 mg/kg/injection, schedule: Q04DX003 (ip), vehicle: Klucel (hydroxypropylcellulose) (HPC)) was 103 % of control and the T/C (dose: 24.0 mg/kg/injection, schedule: Q01DX009 (ip), vehicle: Klucel (hydroxypropylcellulose) (HPC)) was 106 % of control. The T/C (dose: 100.0 mg/kg/injection, schedule: Q01DX001 (ip), vehicle: other) was 101 % of control.
In the case of C=C1N(c2ccc(OC)c(OC)c2)C(=O)OC12CCCCC2, the T/C [15] is reported as 93 % of control, the T/C (dose: 50.0 mg/kg/injection, schedule: Q04DX003 (ip), vehicle: Klucel (hydroxypropylcellulose) (HPC)) is reported as 93 % of control and the T/C [12] is reported as 102 % of control. The T/C [13] was 96 % of control.
With COc1ccc(/C=C(C(=O)O)/C(=C/c2ccc(OC)c(OC)c2)C(=O)O)cc1OC the T/C [4] was 96 % of control, the T/C [12] was 95 % of control and the T/C [10] was 105 % of control. The T/C [13] was 96 % of control, the T/C [11] was 91 % of control and the T/C [14] was 98 % of control.
With SC(S)(Cc1ccccc1)Cc1ccccc1 the T/C (dose: 100.0 mg/kg/injection, schedule: Q04DX002 (ip), vehicle: saline) was 100 % of control, the T/C (dose: 200.0 mg/kg/injection, schedule: Q04DX002 (ip), vehicle: saline) was 100 % of control and the T/C (dose: 400.0 mg/kg/injection, schedule: Q04DX002 (ip), vehicle: saline) was 94 % of control.
For CC(NC(=O)NCCCl)c1ccccc1 (configuration not stated), the T/C (dose: 25.0 mg/kg/injection, schedule: Q04DX003 (ip), vehicle: saline with Tween-80) was 100 % of control, the T/C [16] was 90 % of control and the T/C [1] was 100 % of control and 90 % of control and 94 % of control. The T/C [2] was 102 % of control.
In the case of CC(Oc1ccccc1)C(=O)NC(=S)Nc1ccc(Cl)cc1 (configuration not stated), the T/C (dose: 50.0 mg/kg/injection, schedule: Q01DX001 (ip), vehicle: saline with Tween-80) is reported as 97 % of control, the T/C (dose: 50.0 mg/kg/injection, schedule: Q01DX009 (ip), vehicle: saline with Tween-80) is reported as 97 % of control and 98 % of control and 92 % of control and the T/C [16] is reported as 98 % of control. The T/C (dose: 100.0 mg/kg/injection, schedule: Q01DX001 (ip), vehicle: saline with Tween-80) was 97 % of control, the T/C (dose: 100.0 mg/kg/injection, schedule: Q01DX009 (ip), vehicle: saline with Tween-80) was 97 % of control and 98 % of control and 101 % of control and the T/C [1] was 97 % of control. The T/C (dose: 200.0 mg/kg/injection, schedule: Q01DX001 (ip), vehicle: saline with Tween-80) was 92 % of control and the T/C [2] was 109 % of control.
In the case of O=[As](O)(O)CCc1ccccc1, the T/C (dose: 12.5 mg/kg/injection, schedule: Q04DX003 (ip), vehicle: Klucel (hydroxypropylcellulose) (HPC)) is reported as 101 % of control and the T/C [15] is reported as 108 % of control.
With C=C(C)C1CC=C(C)CC1 (configuration not stated) the T/C (dose: 100.0 mg/kg/injection, schedule: Q01DX001 (ip), vehicle: saline) was 111 % of control, the T/C [3] was 91 % of control and the T/C [5] was 110 % of control. For the same molecule, the T/C (dose: 200.0 mg/kg/injection, schedule: Q01DX001 (ip), vehicle: saline) was 105 % of control, the T/C [7] was 97 % of control and the T/C (dose: 400.0 mg/kg/injection, schedule: Q01DX001 (ip), vehicle: saline) was 111 % of control. The T/C [9] was 97 % of control.
COc1c(N)ccc(-c2ccc(N)c(OC)c2Cl)c1Cl was tested, and the T/C (dose: 75.0 mg/kg/injection, schedule: Q04DX003 (ip), vehicle: saline with Tween-80) was 94 % of control.
With CCC1CC2CCC(c3cc4c(cc3OC)N(C)C3C(O)(C(=O)OC)C(OC(C)=O)C5(CC)C=CCN6CCC43C65)c3[nH]c4ccccc4c3CCN(C1)C2 (configuration not stated) the T/C (dose: 0.8 mg/kg/injection, schedule: Q01DX001 (ip), vehicle: saline) was 97 % of control, the T/C (dose: 1.6 mg/kg/injection, schedule: Q01DX001 (ip), vehicle: saline) was 97 % of control and the T/C (dose: 3.2 mg/kg/injection, schedule: Q01DX001 (ip), vehicle: saline) was 97 % of control. The T/C (dose: 6.4 mg/kg/injection, schedule: Q01DX001 (ip), vehicle: saline) was 100 % of control.
O=C(/C=C/c1cccnc1)NCC(O)CO (configuration not stated) was tested, and the T/C [3] was 101 % of control, the T/C [5] was 108 % of control and the T/C [6] was 97 % of control. The T/C [7] was 105 % of control, the T/C [8] was 100 % of control and the T/C [9] was 96 % of control.
In the case of C1CN1P1(N2CC2)=NP(N2CC2)(N2CC2)=NP(N2CC2)(N2CC2)=N1, the T/C (dose: 10.0 mg/kg/injection, schedule: Q01DX009 (ip), vehicle: saline) is reported as 159 % of control, the T/C (dose: 20.0 mg/kg/injection, schedule: Q01DX009 (ip), vehicle: saline) is reported as 104 % of control and the T/C (dose: 75.0 mg/kg/injection, schedule: Q01DX001 (ip), vehicle: saline) is reported as 162 % of control.
CC(=O)Nc1ccc(OC(=O)Nc2ccc(F)c([N+](=O)[O-])c2)cc1 was tested, and the T/C [4] was 118 % of control and the T/C [10] was 112 % of control.
